Patent US11524956B2, “Alkyne substituted quinazoline compound and methods of use” (Newgen Therapeutics, Inc., priority 2011, dated 2022)
Entries after “also recorded” stand apart in the source; their conditions may differ.

Columns and labels:
EGFR kinase = EGFR kinase (Homo sapiens (Human), UniProt P00533); experiment: Kinase assay for EGFR (TR-FRET, LanthaScreen); type: biochemical; settings: read-out: Kinase inhibition IC50 (nM) EGFR
Protocol: The extent to which the compounds of the present invention modulate EGFR kinase activity can be determined using time-resolved Fret (TR-FRET) assay (LanthaScreen® kinase activity assay, from InVitrogen). The assay employs EGFR kinase (PV3872, Invitrogen), Tb-Py20 antibody (PV3552, InVitrogen) and fluorescein-poly GT (PV3610, InVitrogen).
The assay is performed in a Black 384-well plate (available from Corning). EGFR kinase (is diluted in TR-FRET Dilution Buffer (PV3189, InVitrogen) at concentration of 0.4 ug/ml as stock solution, and then 2-fold serial diluted. Addition of 1 mM ATP initiated the reaction, and the reaction is incubated for […] at room temperature. 10 μL of the Tb-antibody (from InVitrogen)+EDTA (from InVitrogen) solution prepared was added to each well of the assay plate and mix briefly, and incubated for 30 min. The signal is monitored by using M5 microplate reader (Ex=332 nm, Em=488 nm and 518 nm). Each compound is tested in duplicate wells. EGFR without compound is used as control. Staurosporine (available from Sigma) is used as positive control compound. Inhibition was calculated as percentage of the EGFR activity (without compound).

BT474 cells = experiment: Cell proliferation inhibition assay for BT474 (CCK-8); type: cell-based; settings: Homo sapiens, BT-474; 72h
Protocol: Human breast cancer BT474 cells was cultured in low glucose DMEM (Life Technologies 12320-032) containing 10% fetal bovine serum (FBS) at 37° C. in a humidified 10% CO2, 90% air incubator. Cells were harvested using trypsin EDTA, counted using a haemocytometer, and plated 10000 cell/well in a 96-well clear tissue culture plate. The cells were incubated for 24 h at 37° C. to allow adherence. A serials of concentrations of each compound (ranging from 30 um to 0.16 nM, 5-fold dilution) in 96-well plate, and incubated for 72h. Each concentration was tested in triplicate wells. During the cell proliferation assay, BT474 cells were cultured in low-glucose DMEM containing 5% FBS, 50 ug/ml gentamicin, and 0.3% v/v DMSO. The culture medium was removed via aspiration, and the cell viability was detected by using CCK-8 cell proliferation kit. The IC50 value measured for each compound in Examples 1 to 7 is <100 nM.

ErbB2 kinase protein = ErbB2 kinase protein (Homo sapiens (Human), UniProt P04626); experiment: Kinase assay for ErbB2; type: biochemical; settings: read-out: Kinase inhibition IC50 (nM) ErbB2
Sequence of ErbB2 kinase protein (P04626 23-1255): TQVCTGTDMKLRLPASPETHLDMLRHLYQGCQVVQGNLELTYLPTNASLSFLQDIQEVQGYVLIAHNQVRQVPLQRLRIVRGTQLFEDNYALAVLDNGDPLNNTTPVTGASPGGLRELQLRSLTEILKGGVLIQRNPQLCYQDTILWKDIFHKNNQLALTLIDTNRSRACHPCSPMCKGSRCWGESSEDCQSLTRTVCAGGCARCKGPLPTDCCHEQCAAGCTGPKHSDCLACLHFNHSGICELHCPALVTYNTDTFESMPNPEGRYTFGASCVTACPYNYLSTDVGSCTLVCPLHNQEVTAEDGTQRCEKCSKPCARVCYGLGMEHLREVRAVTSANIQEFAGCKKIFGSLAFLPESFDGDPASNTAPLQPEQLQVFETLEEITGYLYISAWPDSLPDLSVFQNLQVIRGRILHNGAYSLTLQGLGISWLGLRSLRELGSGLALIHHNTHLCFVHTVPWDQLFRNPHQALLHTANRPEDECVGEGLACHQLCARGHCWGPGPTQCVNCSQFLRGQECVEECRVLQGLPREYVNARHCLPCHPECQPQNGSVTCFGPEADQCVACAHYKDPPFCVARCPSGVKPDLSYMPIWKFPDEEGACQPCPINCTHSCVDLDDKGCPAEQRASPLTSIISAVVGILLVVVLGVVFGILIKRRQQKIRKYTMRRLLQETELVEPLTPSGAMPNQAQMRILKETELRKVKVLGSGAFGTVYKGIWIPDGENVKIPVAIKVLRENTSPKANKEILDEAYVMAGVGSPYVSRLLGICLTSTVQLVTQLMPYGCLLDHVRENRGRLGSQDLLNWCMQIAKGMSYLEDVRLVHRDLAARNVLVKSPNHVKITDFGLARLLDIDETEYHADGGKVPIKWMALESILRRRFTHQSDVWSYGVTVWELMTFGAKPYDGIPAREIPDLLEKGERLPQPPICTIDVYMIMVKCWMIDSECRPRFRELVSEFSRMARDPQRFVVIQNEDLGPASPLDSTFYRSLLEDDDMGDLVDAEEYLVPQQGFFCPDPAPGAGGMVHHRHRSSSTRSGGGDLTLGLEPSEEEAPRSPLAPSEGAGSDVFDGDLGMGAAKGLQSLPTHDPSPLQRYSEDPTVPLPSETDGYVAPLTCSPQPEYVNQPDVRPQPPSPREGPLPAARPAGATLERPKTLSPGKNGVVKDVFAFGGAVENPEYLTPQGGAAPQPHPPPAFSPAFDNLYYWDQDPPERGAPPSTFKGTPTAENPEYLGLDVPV
Protocol: The assay is performed similarly to the kinase assay for […] as described above, except ErbB2 kinase protein is used instead of EGFR kinase protein.

NCI-N87 xenograft = experiment: In vivo efficacy in NCI-N87 xenograft mouse model; settings: 80 mg/kg p.o. bid
Protocol: NCI-N87 cell line was purchased from ATCC (American Type Culture Collection) and was cultured in RPMI1640+10% FBS+1% P/S antibiotics.
Male Balb/c nude mice, 6-8 week, 18±2 g (supplier: Shanghai SLAC Laboratory Animal Co. Ltd.) were used for the experiment. The purchased mice were adapted to the environment for 7 days before use, and were housed at 22-25° C. with humidity 40-70%, and light cycle with fluorescent light for 12-hour light (8:00-20:00) 12-hour dark. The mice have free access to food and water.
The cancer cells (NCI-N87) were implanted subcutaneous into the nude mice (right flank) with 5.0×10^6 cells in 0.1 ml PBS (50 mice). When the tumor size reaches a volume of 200 (150-200) mm^3, the tumor-bearing nude mice were randomly assigned into groups (10 mice/group), one group was served as vehicle, one group was administrated with Lapatinib ditosylate monohydrate (80 mg/kg, free base of Lapatinib, not salt, p.o. […]). The other two groups were administrated with NT113 (also referred to as KID 113) ((15 and 30 mg/kg, p.o.q.d, respectively). The administration period lasted for 4 weeks.
The mice were monitored twice daily for appearance and behavior, and for signs of morbidity and/or mortality. The tumor volume was measured twice a week, and the body weight was measured immediately before measuring the tumor volume throughout the whole study.
At end of the experiment (compound administration for four weeks), all the tumor-bearing mice were sacrificed by cervical dislocation under deep anesthesia. The tumor mass was resected, and weighed.
Tumor sizes were measured twice weekly in two dimensions using a caliper, and the volume was expressed in mm^3 using the formula: V=½×a×b^2 where a and b are the long and short diameters of the tumor, respectively. The tumor mass was weighed at the end of the experiment after harvested.
V=½×a×b^2 (a, h is maximum and minimum diameters respectively).
RTV (Relative Tumor Volume)=Vt/Vo • Vo is the tumor volume when the test article is initial administrated • Vt is the tumor volume of every measurement day after test article administration
T/C (%)=TRTV/CRTV×100% • TRTV: RTV of test article-treatment group; CRTV: RTV of control group Inhibition rate (%)=(average tumor volume of control group average cancer volume of test article treatment group)/average tumor volume of control group×100%
The tumor-bearing mice were treated for 4 weeks with different doses of KU (15 mg/kg, 30 mg/kg, […]), qd) and Lapatinib KUA-1, 80 mg/kg, p.o., bid, 7 days/week. At the day-7 after treatment, the RTV TIC KU113 (15 mg/kg, 30 mg/kg) groups were <30%, and the tumor growth inhibition was >70%. but the RTV TIC was 31% and tumor growth inhibition rat was 69% in the lapatinib group. The same result was observed as well when it comes to the tumor weight. On day 28 after treatment, all the tumor-bearing mice were sacrificed, and all the tumor masses were harvested to weigh.

Rat brain concentration = type: in vivo, Sprague Dawley rats; settings: predetermined time points
Protocol: Brain concentration: Three rats are for brain collection (2h) only. Three rats are for brain collection (4 h) only. The rest 3 rats are for plasma (9 time points) and brain collection (24h).
Brain Collection and Tissue Processing: Post blood collection, the brain was first perfused intracardially with ˜150 mL of ice-cold, 0.1 M Phosphate Buffered Saline (PBS) at pH7.4. Then, the dura was removed before weighing the brain. The brain was then dissected into smaller pieces, rinsed twice with ˜10 mL PBS, and then flash frozen on dry ice, and stored at −80° C. before analysis.
Before tissue processing, rat brains were thawed. For the preparation of analytical standards, purchased frozen rat brains (from Pelfreez) were similarly thawed, dissected, rinsed with PBS, and 100 μL of Compound A stock solution (at 500 ng/mL and 1, 2 5, 10, and 50 μg/mL in acetonitrile) was spiked directly into the tissue. Both Compound A dosed and spiked brains then underwent the same processing procedures described below.
Briefly, 2 mL of water was added to each brain before homogenization. Homogenize the brain in 2 to 3 sessions, each approximately 15 sec. The mechanical probe of the homogenizer was cleansed in water, 70% ethanol, and ethyl acetate after each sample. The resulting brain homogenates were then extracted with ethyl acetate three times (14 mL total), and centrifuged to separate the aqueous and organic phases after each extraction. Per brain, pooled organic phase were evaporated under a stream of nitrogen at 40° C. and the residues were reconstituted with 4 mL of mobile phase B. Compound A spiked brain samples in the 4 mL solutions had final concentrations of 12.5, 25, 50, 125, 250, 1250 ng/mL. The reconstituted samples were incubated for ˜15 minutes at 60° C. and, vortexed for 10 minutes to fully dissolve the analytes. The samples were centrifuged, and then further diluted with Mobile phase B (shown below) before LC/MS/MS analysis. Dilute 20 μL of reconstituted samples with 1.5 mL mobile phase B. Transfer and inject supernatant to […] system for analysis.

[1] = Rat pharmacokinetics studies (plasma); type: in vivo, Sprague Dawley rats; settings: rat
Protocol: Sample preparation: The test article each was dissolved in 10% DMSO and 90% of (40% HP-β-CD in deionized water) to yield concentration at 2 mg/mL for intravenous and oral administration.
Method development and plasma samples analysis were performed by Analytical Sciences Division of the Testing Facility by means of LC-MS/MS. The analytical results were confirmed using quality control samples for intra-assay variation (within day variation). The accuracy of >66% of the quality control samples was between 80-120% of the known value(s).
Each group consisted of 3 male Sprague Dawley rats (7-8 week old, 200-300 g body weight). The test articles were administered by a single bolus intravenous injection via the lateral tail vein or via oral gavage.
Blood samples (approximately 300 μl) were collected via retro-orbital puncture after anaesthesia using mixed gas (CO2:O2=7:3) into tubes containing EDTA-K3 anticoagulant at appropriate time points. 10 time points (Groups 1-2): Pre-dose and post-dose at 5 min, 15 min, 30 min, 1 h, 2 h, 4 h, 6 h, 8 h and 24 h.
Analysis: The PK blood samples were centrifuged at approximately 8000 rpm for (3 minutes at 2-8° C. and the resulting plasma were separated and stored frozen at approximately −80° C. (following separation, the plasma may be initially placed on ice prior to being stored in the −80° C. freezer). All the plasma samples were labeled with detailed information such as study number, animal number, matrix, time points of collection and date of collection.
Standard set of parameters including Area Under the Curve (AUC(0-t) and AUC(0-∞)), elimination half-live (T1/2), maximum plasma concentration (Cmax), time to reach maximum plasma concentration (Tmax), clearance (CL), and volume of distribution (Vz) will be calculated using noncompartmental analysis modules in FDA certified pharmacokinetic program WinNonlin Professional v5.2 (Pharsight, USA) by the Study Director. Furthermore, the Bioavailability will be estimated using the following formula:
• AUC(0-t) Area under the curve from the time of dosing to the last measurable concentration • AUC(0-∞) Area under the curve from the time of dosing extrapolated to infinity, based on the last observed concentration • CL Total body clearance, CL=Dose/AUC • Cmax Maximum observed concentration, occurring at Tmax • F Bioavailability • MRT(0-∞) Mean residence time from the time of dosing to infinity • Tmax Time of maximum observed concentration • T1/2 Terminal half-life=In(2)/λz • Vz Volume of distribution based on the terminal phase

Sequence of EGFR kinase (P00533 668-1210): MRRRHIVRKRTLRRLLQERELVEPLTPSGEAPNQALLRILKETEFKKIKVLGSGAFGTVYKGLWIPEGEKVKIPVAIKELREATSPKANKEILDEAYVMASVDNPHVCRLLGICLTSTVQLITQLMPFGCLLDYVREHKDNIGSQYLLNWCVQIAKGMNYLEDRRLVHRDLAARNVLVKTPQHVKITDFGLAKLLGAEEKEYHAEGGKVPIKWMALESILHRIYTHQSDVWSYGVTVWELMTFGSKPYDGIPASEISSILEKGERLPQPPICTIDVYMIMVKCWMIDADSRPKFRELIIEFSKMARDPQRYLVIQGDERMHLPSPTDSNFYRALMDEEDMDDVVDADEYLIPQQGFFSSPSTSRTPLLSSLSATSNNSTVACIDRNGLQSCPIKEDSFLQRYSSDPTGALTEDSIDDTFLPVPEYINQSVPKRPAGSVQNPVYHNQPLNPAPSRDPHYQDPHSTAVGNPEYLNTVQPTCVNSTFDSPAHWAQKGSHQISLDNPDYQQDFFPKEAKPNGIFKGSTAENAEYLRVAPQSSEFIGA

With `CN(C)C/C=C/C(=O)Nc1cc2c(Nc3ccc(F)c(Cl)c3)ncnc2cc1C#CC1CCOC1` (stereo not shown) [Example 1, (E)-N-(4-(3-chloro-4-fluorophenylamino)-7-(2-(tetrahydrofuran-3-yl)ethynyl)quinazolin-6-yl)-4-(dimethylamino)but-2-enamide] the IC50 (EGFR kinase) was under 100 nM, the IC50 (BT474 cells) was under 100 nM and the IC50 (ErbB2 kinase protein) was under 100 nM.
With `CN(C)C/C=C/C(=O)Nc1cc2c(Nc3ccc(F)c(Cl)c3)ncnc2cc1C#C[C@@H]1CCCO1` [Example 2, (E)-N-(4-(3-chloro-4-fluorophenylamino)-7-(2-((S)-tetrahydrofuran-2-yl)ethynyl)quinazolin-6-yl)-4-(dimethylamino)but-2-enamide] the IC50 (EGFR kinase) was under 100 nM, the IC50 (BT474 cells) was under 100 nM and the IC50 (ErbB2 kinase protein) was under 100 nM.
With `CN(C)C/C=C/C(=O)Nc1cc2c(Nc3ccc(F)c(Cl)c3)ncnc2cc1C#C[C@H]1CCCO1` [Example 3, (E)-N-(4-(3-chloro-4-fluorophenylamino)-7-(2-((R)-tetrahydrofuran-2-yl)ethynyl)quinazolin-6-yl)-4-(dimethylamino)but-2-enamide] the IC50 (EGFR kinase) was under 100 nM, the IC50 (BT474 cells) was under 100 nM and the IC50 (ErbB2 kinase protein) was under 100 nM.
Work on `CN(C)C/C=C/C(=O)Nc1cc2c(Nc3ccc(F)c(Cl)c3)ncnc2cc1C#CC12COCC1C2` (stereo not shown) [Example 5, (E)-N-(4-(3-chloro-4-fluorophenylamino)-7-(2-(3-oxa-bicyclo[3.1.0]hexan-1-yl)ethynyl)quinazolin-6-yl)-4-(dimethylamino)but-2-enamide] yielded an IC50 (EGFR kinase) of under 100 nM, an IC50 (BT474 cells) of under 100 nM and an IC50 (ErbB2 kinase protein) of under 100 nM.
In the case of `CN(C)C/C=C/C(=O)Nc1cc2c(Nc3ccc(F)c(Cl)c3)ncnc2cc1C#C[C@]12COC[C@H]1C2` [Example 6, (E)-N-(4-(3-chloro-4-fluorophenylamino)-7-(2-((1R,5S)-3-oxa-bicyclo[3.1.0]hexan-1-yl)ethynyl)quinazolin-6-yl)-4-(dimethylamino)but-2-enamide], the IC50 (EGFR kinase) was under 100 nM, the IC50 (BT474 cells) was under 100 nM and the IC50 (ErbB2 kinase protein) was under 100 nM.
`CN(C)C/C=C/C(=O)Nc1cc2c(Nc3ccc(F)c(Cl)c3)ncnc2cc1C#C[C@@]12COC[C@@H]1C2` [Example 7, (E)-N-(4-(3-chloro-4-fluorophenylamino)-7-(2-((1S,5R)-3-oxa-bicyclo[3.1.0]hexan-1-yl)ethynyl)quinazolin-6-yl)-4-(dimethylamino)but-2-enamide] showed an IC50 (EGFR kinase) of under 100 nM, an IC50 (BT474 cells) of under 100 nM and an IC50 (ErbB2 kinase protein) of under 100 nM.
For `CS(=O)(=O)CCNCc1ccc(-c2ccc3ncnc(Nc4ccc(OCc5cccc(F)c5)c(Cl)c4)c3c2)o1` [Lapatinib, reference compound], the tumor inhibition rate (NCI-N87 xenograft; day 28 (last day of the study)) was 92.9%, the “RTV T/C” value (NCI-N87 xenograft; day-7 after treatment) was 31% and the “tumor growth inhibition rate” value (NCI-N87 xenograft; day-7 after treatment) was 69%.
With `CN(C)C/C=C/C(=O)Nc1cc2c(Nc3ccc(F)c(Cl)c3)ncnc2cc1O[C@H]1CCOC1` [afatinib, reference compound] the Kp (Rat brain concentration; Sprague Dawley, brain/plasma, read-out: Brain/plasma concentration ratio) was under 0.05, the brain concentration (Rat brain concentration) was under 1 ng/g and the “brain concentration (detectability)” value (Rat brain concentration) was “no detectable brain concentration; also recorded: below detection limit”. The “rat PK (qualitative)” value [1] was “poor PK”.
